Source: the NIST ThermoML archive (doi:10.1021/je400659p)

Assays:
[1] = xn = mol fraction of the nth substance listed; settings: 101 kPa, Liquid, Vibrating tube method
[2] = refractive index (Na D-line) (dimensionless); xn = mol fraction of the nth substance listed; settings: 101 kPa, Liquid, Standard Abbe refractometry

C1COCCO1 [1,4-dioxane] + CCCCn1cc[n+](C)c1.F[B-](F)(F)F
Settings	mass density, [1] [kg/m3]	refractive index, [2]
293.15 K, x2 = 0	1033.57	–
293.15 K, x2 = 0.2559	1118.75	–
293.15 K, x2 = 0.3956	1146.31	–
293.15 K, x2 = 0.4988	1161.37	–
293.15 K, x2 = 0.6	1173.1	–
293.15 K, x2 = 0.7021	1183.04	–
293.15 K, x2 = 0.8993	1198.09	–
298.15 K, x2 = 0	1027.92	1.4205
298.15 K, x2 = 0.2559	1114.31	1.4253
298.15 K, x2 = 0.3956	1142.23	1.4258
298.15 K, x2 = 0.4988	1157.44	1.4256
298.15 K, x2 = 0.6	1169.26	1.4249
298.15 K, x2 = 0.7021	1179.3	1.4241
298.15 K, x2 = 0.8993	1194.53	1.4222
303.15 K, x2 = 0	1022.27	1.4171
303.15 K, x2 = 0.2559	1109.87	1.4236
303.15 K, x2 = 0.3956	1138.14	1.4244
303.15 K, x2 = 0.4988	1153.51	1.4242
303.15 K, x2 = 0.6	1165.45	1.4235
303.15 K, x2 = 0.7021	1175.57	1.4225
303.15 K, x2 = 0.8993	1190.95	1.4207
313.15 K, x2 = 0	1010.91	1.4112
313.15 K, x2 = 0.2559	1101.06	1.4196
313.15 K, x2 = 0.3956	1130.01	1.421
313.15 K, x2 = 0.4988	1145.69	1.4211
313.15 K, x2 = 0.6	1157.84	1.4206
313.15 K, x2 = 0.7021	1168.15	1.4199
313.15 K, x2 = 0.8993	1183.8	1.4183
323.15 K, x2 = 0	999.49	1.4063
323.15 K, x2 = 0.2559	1092.28	1.4161
323.15 K, x2 = 0.3956	1121.91	1.4179
323.15 K, x2 = 0.4988	1137.92	1.4181
323.15 K, x2 = 0.6	1150.29	1.4177
323.15 K, x2 = 0.7021	1160.77	1.4169
323.15 K, x2 = 0.8993	1176.68	1.4155
333.15 K, x2 = 0	987.97	–
333.15 K, x2 = 0.2559	1083.47	–
333.15 K, x2 = 0.3956	1113.85	–
333.15 K, x2 = 0.4988	1130.18	–
333.15 K, x2 = 0.6	1142.79	–
333.15 K, x2 = 0.7021	1153.44	–
333.15 K, x2 = 0.8993	1169.6	–
343.15 K, x2 = 0	976.37	–
343.15 K, x2 = 0.2559	1074.65	–
343.15 K, x2 = 0.3956	1105.8	–
343.15 K, x2 = 0.4988	1122.47	–
343.15 K, x2 = 0.6	1135.31	–
343.15 K, x2 = 0.7021	1146.14	–
343.15 K, x2 = 0.8993	1162.53	–
353.15 K, x2 = 0	964.63	–
353.15 K, x2 = 0.2559	1065.8	–
353.15 K, x2 = 0.3956	1097.77	–
353.15 K, x2 = 0.4988	1114.8	–
353.15 K, x2 = 0.6	1127.87	–
353.15 K, x2 = 0.7021	1138.89	–
353.15 K, x2 = 0.8993	1155.57	–

CCn1cc[n+](C)c1.F[B-](F)(F)F [1-ethyl-3-methylimidazolium tetrafluoroborate] + C1COCCO1
Settings	mass density, [1] [kg/m3]	refractive index, [2]
293.15 K, x1 = 0.3292	1171.62	–
293.15 K, x1 = 0.4547	1203.47	–
293.15 K, x1 = 0.4923	1211.84	–
293.15 K, x1 = 0.6409	1240.74	–
293.15 K, x1 = 0.6838	1246.89	–
293.15 K, x1 = 0.7851	1263.5	–
293.15 K, x1 = 0.8336	1270.18	–
293.15 K, x1 = 1	1290.63	–
298.15 K, x1 = 0.3292	1167.26	1.4214
298.15 K, x1 = 0.4547	1199.31	1.4197
298.15 K, x1 = 0.4923	1207.73	1.4191
298.15 K, x1 = 0.6409	1236.77	1.4165
298.15 K, x1 = 0.6838	1242.94	1.4157
298.15 K, x1 = 0.7851	1259.61	1.414
298.15 K, x1 = 0.8336	1266.32	1.4132
298.15 K, x1 = 1	1286.82	1.4111
303.15 K, x1 = 0.3292	1163	1.4195
303.15 K, x1 = 0.4547	1195.16	1.4181
303.15 K, x1 = 0.4923	1203.63	1.4176
303.15 K, x1 = 0.6409	1232.79	1.415
303.15 K, x1 = 0.6838	1238.89	1.4143
303.15 K, x1 = 0.7851	1255.72	1.4125
303.15 K, x1 = 0.8336	1262.45	1.4118
303.15 K, x1 = 1	1283.02	1.41
313.15 K, x1 = 0.3292	1154.24	1.4163
313.15 K, x1 = 0.4547	1186.92	1.4154
313.15 K, x1 = 0.4923	1195.48	1.4149
313.15 K, x1 = 0.6409	1224.92	1.4126
313.15 K, x1 = 0.6838	1231.17	1.4118
313.15 K, x1 = 0.7851	1248.01	1.41
313.15 K, x1 = 0.8336	1254.79	1.4092
313.15 K, x1 = 1	1275.45	1.4073
323.15 K, x1 = 0.3292	1145.14	1.4129
323.15 K, x1 = 0.4547	1178.43	1.4123
323.15 K, x1 = 0.4923	1187.38	1.4119
323.15 K, x1 = 0.6409	1217.1	1.4097
323.15 K, x1 = 0.6838	1223.4	1.409
323.15 K, x1 = 0.7851	1240.36	1.4074
323.15 K, x1 = 0.8336	1247.18	1.4067
323.15 K, x1 = 1	1267.97	1.4051
333.15 K, x1 = 0.3292	1136.98	–
333.15 K, x1 = 0.4547	1170.56	–
333.15 K, x1 = 0.4923	1179.33	–
333.15 K, x1 = 0.6409	1209.33	–
333.15 K, x1 = 0.6838	1215.68	–
333.15 K, x1 = 0.7851	1232.77	–
333.15 K, x1 = 0.8336	1239.64	–
333.15 K, x1 = 1	1260.55	–
343.15 K, x1 = 0.3292	1128.37	–
343.15 K, x1 = 0.4547	1162.44	–
343.15 K, x1 = 0.4923	1171.31	–
343.15 K, x1 = 0.6409	1201.62	–
343.15 K, x1 = 0.6838	1208.02	–
343.15 K, x1 = 0.7851	1225.24	–
343.15 K, x1 = 0.8336	1232.15	–
343.15 K, x1 = 1	1253.18	–
353.15 K, x1 = 0.3292	1120.41	–
353.15 K, x1 = 0.4547	1154.35	–
353.15 K, x1 = 0.4923	1163.32	–
353.15 K, x1 = 0.6409	1193.95	–
353.15 K, x1 = 0.6838	1200.41	–
353.15 K, x1 = 0.7851	1217.75	–
353.15 K, x1 = 0.8336	1225.41	–
353.15 K, x1 = 1	1245.87	–
